Experimental data reported in patent US20120289523A1, “PYRROLO [3,2-E] [1,2,4] TRIAZOLO [1,5-A] PYRIMIDINES DERIVATIVES AS INHIBITORS OF MICROGLIA ACTIVATION” (BTG INTERNATIONAL LIMITED, priority 2009, published 2012).
One block for each molecule: values may come before it.

What was measured:
[1] = system: Mouse BALB/c monocyte macrophages, J774.2; assay: Inhibition of β-amyloid induced activation: nitric oxide release (Griess assay); assay type: cell-based; conditions: 20 μM Aβ(1-42), 50 U/ml Interferon gamma, 24 hours
Protocol: (§1) Mouse BALB/c monocyte macrophages, J774.2, {ECACC 85011428} were grown and sub-cultured in cell media (DMEM containing 10% FBS, 1% L-glutamine and 1% penicillin/streptomycin). The J774 cells were plated at 100,000 cells/well in 50 μl cell media on 96 well plates and placed in a 37° C., 5% CO2 incubator overnight prior to experiments.
(§2) The addition of Aβ(1-42) and compounds to the J774 cells was performed using a Biotek precision 2000 liquid handling instrument. 3 μl of compound in DMSO ranging from 8 μM to 6 mM were pipetted into a “daughter plate” containing 294 μl of cell media and mixed thoroughly. 3 μl of Aβ(1-42) in DMSO at 4 mM was then added to the “daughter plate” and mixed thoroughly. 50 μl was then removed from the “daughter plate” and added to the plated J774 cells. The final concentrations in the wells containing 100 μl cell media were 20 μM Aβ(1-42), the compounds ranged from ˜40 nM to 30 μM in 1% DMSO and also in the presence of 50 U/ml Interferon gamma. The plates were incubated for 24 hours in a 37° C., 5% CO2 incubator. After 24 hours incubation the media from the wells were collected and stored at −20° C. until required for testing.
The nitric oxide levels in the media were tested using the Griess assay (Promega G2930) using the manufacturer's instructions.

[2] = system: Mouse BALB/c monocyte macrophages, J774.2; assay: Inhibition of β-amyloid induced activation: TNF-alpha levels in media (ELISA or Meso Scale Discovery kit); assay type: cell-based; conditions: J774.2, 24 h, J774.2 cells, 20 μM Aβ(1-42), read-out: IC50 (μM) TNF-α
Protocol: as §1, §2
The TNF-alpha levels in the media were tested using a TNF-alpha ELISA (R&D Systems MTA00) or Meso Scale Discovery MS6000 Mouse Proinflammatory-7 kit, using the manufacturers instructions.

CYP2C9 = target: T1, CYP2C9 (Homo sapiens, UniProt P11712); assay: Inhibition of cytochrome P450 (P450-Glo) CYP2C9; assay type: biochemical; conditions: human recombinant enzyme, read-out: CYP450 Inhibition (IC50 microM) 2C9
T1 construct: purchased Promega Corporation
Protocol: (§3) Tests were carried out using human recombinant enzymes CYP1A2, CYP2C9, CYP2C19, CYP2D6 and CYP3A4 and P450-Glo™ screening system (Promega Corporation). Briefly, using a white opaque 96-well plate, one-fourth of the final reaction volume of a 4×cytochrome P450 reaction mixture containing the requisite luminogenic substrate was combined with an equal volume of the test compound (0.03-30 μM) or known inhibitor control at a 4×concentration to give one-half of the final reaction volume. A 10-minute pre-incubation was performed. One-half the final volume of the 2×NADPH regeneration system was then added to initiate the CYP reactions, and bring all components to their 1×target concentrations. The plate is incubated at 37° C. for 30 minutes. The luciferin detection reagent was added which stops the CYP reaction and initiates luminescence. The signal was allowed to stabilize for 20 minutes at room temperature and then the luminescence was read. The net CYP-dependent luminescence was calculated by subtracting the average luminescence of the control reactions from the CYP-containing reactions. Changes from the average net signal of untreated CYP reactions for reactions with a test compound reflect the inhibition of CYP activity by this compound.

CYP3A4 = target: T2, CYP3A4 (Homo sapiens, UniProt P08684); assay: Inhibition of cytochrome P450 (P450-Glo) CYP3A4; assay type: biochemical; conditions: human recombinant enzyme, read-out: CYP450 Inhibition (IC50 microM) 3A4
T2 construct: purchased Promega Corporation
Protocol: as §3

CYP1A2 = target: T3, CYP1A2 (Homo sapiens, UniProt P05177); assay: Inhibition of cytochrome P450 (P450-Glo) CYP1A2; assay type: biochemical; conditions: human recombinant enzyme, read-out: CYP450 Inhibition (IC50 microM) 1A2
T3 construct: purchased Promega Corporation
T3 sequence (P05177 1-516): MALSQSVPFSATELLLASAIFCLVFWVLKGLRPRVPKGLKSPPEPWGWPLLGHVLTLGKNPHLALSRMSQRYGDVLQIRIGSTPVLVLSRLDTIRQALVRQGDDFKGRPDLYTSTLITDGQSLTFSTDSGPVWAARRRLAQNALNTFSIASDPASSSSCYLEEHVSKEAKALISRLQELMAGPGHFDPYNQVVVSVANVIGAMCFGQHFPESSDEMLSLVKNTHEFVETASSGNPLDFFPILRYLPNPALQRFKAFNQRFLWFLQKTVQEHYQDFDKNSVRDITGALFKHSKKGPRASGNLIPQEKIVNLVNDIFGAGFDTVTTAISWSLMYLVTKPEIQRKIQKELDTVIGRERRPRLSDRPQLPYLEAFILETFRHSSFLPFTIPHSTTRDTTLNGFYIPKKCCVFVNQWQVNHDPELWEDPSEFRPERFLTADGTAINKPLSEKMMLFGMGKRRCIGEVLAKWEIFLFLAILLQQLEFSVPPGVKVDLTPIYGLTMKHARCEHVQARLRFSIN
Protocol: as §3, with “Briefly, using a white opaque 96-well plate, one-fourth of the final reaction volume of a 4×cytochrome P450 reaction mixture containing the requisite luminogenic substrate was combined with an equal volume of the test compound (0.03-30 μM) or known inhibitor control at a 4×concentration to give one-half of the final reaction volume.” left out

[3] = Cell permeability of compounds (Caco-2 or TC7 monolayers); assay type: in vitro ADME, human; conditions: human, Caco-2, apical-to-basolateral, 60 minutes at 37° C., read-out: Cell Perm A-B
Protocol: (§4) These were measured using the accepted in vitro intestinal epithelial model using either the human colon adeno-carcinoma cell line Caco-2 or a sub-clone of this cell line, TC7. The apparent permeability coefficient (Papp) was determined in the apical-to-basolateral (A-B) and the B-A directions across cell monolayers cultured on 96-well polycarbonate membrane filters. Compounds were tested at 10 μM with a final DMSO concentration of 1%. The assay plate was incubated for 60 minutes at 37° C. with gentle shaking. Samples were taken at time zero from the donor side and at the end of the incubation from both donor and receiver sides. Samples were analysed by HPLC-MS/MS. The Papp value (expressed as 10^−6 cm/sec) was then calculated based on the appearance rate of the compound in the receiver side (Gres, M. C. et al. (1998) Pharm. Res., 15, 726-733).

[4] = system: human colon adeno-carcinoma cell line Caco-2 or sub-clone TC7; assay: as above; assay type: in vitro ADME; conditions: 10 μM; for Cell Perm A-B/B-A: ratio of Papp A-B to B-A, 60 minutes
Protocol: as §4

[5] = Metabolism of compounds, rat liver microsomes; assay type: in vitro ADME; conditions: 1 μM compound, 0.3 mg/ml protein, 60 minutes at 37° C.; for half-life at 1 μM: rat, pooled liver microsomes, read-out: Microsomes t1/2 (mins) Rat
Protocol: (§5) These were measured by incubating 1 μM test compound with pooled liver microsomes (0.3 mg/ml) protein for 60 minutes at 37° C. Samples were analysed by HPLC-MS/MS (Kuhnz, W. and Gieschen, H. (1998) Drug Metab. Dispos., 26, 1120-1127).

CYP2D6 = target: T4, CYP2D6 (Homo sapiens, UniProt P10635); assay: Inhibition of cytochrome P450 (P450-Glo) CYP2D6; assay type: biochemical; conditions: human recombinant enzyme, read-out: CYP450 Inhibition (IC50 microM) 2D6
T4 construct: purchased Promega Corporation
Protocol: as §3

CYP2C19 = target: T5, CYP2C19 (Homo sapiens, UniProt P33261); assay: Inhibition of cytochrome P450 (P450-Glo) CYP2C19; assay type: biochemical; conditions: human recombinant enzyme, read-out: CYP450 Inhibition (IC50 microM) 2C19
T5 construct: purchased Promega Corporation
Protocol: as §3

[6] = Metabolism of compounds, human liver microsomes; assay type: in vitro ADME; conditions: 1 μM compound, 0.3 mg/ml protein, 60 minutes at 37° C.; for half-life at 1 μM: human, pooled liver microsomes, read-out: Microsomes t1/2 (mins) Human
Protocol: as §5

[7] = Table 1, identification of the active enantiomer, J774.2 cells, read-out: IC50 measured by inhibition of Nitric Oxide release
[8] = Table 2, J774.2 cells, read-out: IC50 (μM) NO
[9] = **Level of TNF for Aβ(1-42) alone: 13184 pg/mL
[10] = *Level of TNF for Aβ(1-42) alone: 9699 pg/mL

T2 sequence (P08684 whole entry): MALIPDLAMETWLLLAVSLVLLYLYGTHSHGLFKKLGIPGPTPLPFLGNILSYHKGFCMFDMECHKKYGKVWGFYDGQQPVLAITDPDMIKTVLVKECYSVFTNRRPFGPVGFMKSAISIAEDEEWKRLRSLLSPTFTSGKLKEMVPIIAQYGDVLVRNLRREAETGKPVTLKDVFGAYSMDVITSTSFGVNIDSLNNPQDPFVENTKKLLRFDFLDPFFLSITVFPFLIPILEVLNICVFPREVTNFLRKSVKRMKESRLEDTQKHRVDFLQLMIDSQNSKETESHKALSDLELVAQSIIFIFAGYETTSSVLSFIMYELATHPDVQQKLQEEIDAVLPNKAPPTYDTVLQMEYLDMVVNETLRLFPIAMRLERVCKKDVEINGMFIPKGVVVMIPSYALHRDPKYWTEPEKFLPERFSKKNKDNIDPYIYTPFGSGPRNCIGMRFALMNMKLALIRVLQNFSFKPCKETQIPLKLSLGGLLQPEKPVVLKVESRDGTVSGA
T5 sequence (P33261 whole entry): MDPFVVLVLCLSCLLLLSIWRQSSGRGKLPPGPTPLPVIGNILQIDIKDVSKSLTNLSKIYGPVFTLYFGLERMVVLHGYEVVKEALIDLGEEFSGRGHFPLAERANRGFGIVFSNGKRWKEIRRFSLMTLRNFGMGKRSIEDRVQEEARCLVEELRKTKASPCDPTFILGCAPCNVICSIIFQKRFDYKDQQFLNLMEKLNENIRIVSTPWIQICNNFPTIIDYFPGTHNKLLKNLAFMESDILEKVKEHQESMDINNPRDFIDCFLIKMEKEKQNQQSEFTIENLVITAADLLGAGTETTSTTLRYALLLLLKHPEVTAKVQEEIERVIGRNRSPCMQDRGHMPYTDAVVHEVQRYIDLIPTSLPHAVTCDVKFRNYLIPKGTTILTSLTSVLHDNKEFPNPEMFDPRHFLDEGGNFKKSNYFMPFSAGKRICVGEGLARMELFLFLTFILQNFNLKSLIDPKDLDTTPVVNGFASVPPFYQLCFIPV
T4 sequence (P10635 whole entry): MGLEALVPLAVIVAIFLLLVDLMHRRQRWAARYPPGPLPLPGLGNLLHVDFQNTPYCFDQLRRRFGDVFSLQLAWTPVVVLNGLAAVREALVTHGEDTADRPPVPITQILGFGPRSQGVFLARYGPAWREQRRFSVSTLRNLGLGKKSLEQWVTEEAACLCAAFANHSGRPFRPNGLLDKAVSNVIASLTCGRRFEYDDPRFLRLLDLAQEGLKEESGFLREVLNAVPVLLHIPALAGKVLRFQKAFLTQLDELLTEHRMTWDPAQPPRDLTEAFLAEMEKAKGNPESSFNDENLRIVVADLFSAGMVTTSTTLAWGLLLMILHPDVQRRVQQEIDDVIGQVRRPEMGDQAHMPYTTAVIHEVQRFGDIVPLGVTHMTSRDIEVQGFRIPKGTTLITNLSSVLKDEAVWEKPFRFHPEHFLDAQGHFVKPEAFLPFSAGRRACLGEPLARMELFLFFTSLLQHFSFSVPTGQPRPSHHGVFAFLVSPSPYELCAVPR
T1 sequence (P11712 whole entry): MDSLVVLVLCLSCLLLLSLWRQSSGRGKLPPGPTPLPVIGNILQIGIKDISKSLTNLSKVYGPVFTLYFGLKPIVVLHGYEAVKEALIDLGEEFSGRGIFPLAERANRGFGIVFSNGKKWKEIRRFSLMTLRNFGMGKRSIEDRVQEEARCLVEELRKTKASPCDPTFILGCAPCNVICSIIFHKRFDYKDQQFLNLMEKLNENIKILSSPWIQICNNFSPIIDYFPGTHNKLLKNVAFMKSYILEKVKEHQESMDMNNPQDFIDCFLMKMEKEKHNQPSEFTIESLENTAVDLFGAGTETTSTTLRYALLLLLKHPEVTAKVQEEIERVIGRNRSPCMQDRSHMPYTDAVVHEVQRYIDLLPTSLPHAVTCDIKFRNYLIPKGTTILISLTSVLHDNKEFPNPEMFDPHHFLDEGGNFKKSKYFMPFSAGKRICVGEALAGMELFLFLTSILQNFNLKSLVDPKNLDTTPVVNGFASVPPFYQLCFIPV

Compound: Cc1nc2ncnn2c2c1CCN2[C@@H](C)c1ccccc1 [Compound 5, (S)-8-[1-(Phenyl)ethyl]-5-methyl-7,8-dihydro-6H-pyrrolo[3,2e][1,2,4]triazolo[1,5-a]pyrimidine]
IC50 (CYP2C9): > 100 µM | IC50 (CYP3A4): 0.53 µM | IC50 [1, 7]: 1.5 µM | IC50 [1, 8]: 1.5 µM | IC50 (CYP1A2): > 100 µM | Papp A→B at 60 min, 10 μM [3]: 35 ×10⁻⁶ cm/s | Cell Perm A-B/B-A [4]: 0.85 | half-life at 1 μM [5]: 15 min | IC50 (CYP2D6): 21 µM | IC50 (CYP2C19): 13 µM | half-life at 1 μM [6]: > 60 min | IC50 [2, 9]: 2.3 µM

Compound: Cc1nc2ncnn2c2c1CCN2[C@H](C)c1ccccc1 [Compound 6, (R)-8-[1-(Phenyl)ethyl]-5-methyl-7,8-dihydro-6H-pyrrolo[3,2e][1,2,4]triazolo[1,5-a]pyrimidine]
IC50 [1, 7]: 30 µM

Compound: Cc1nc2ncnn2c2c1CCN2[C@@H](C)c1ccc(F)cc1 [Compound 7, (S)-8-[1-(4-Fluorophenyl)ethyl]-5-methyl-7,8-dihydro-6H-pyrrolo [3,2e][1,2,4]triazolo[1,5-a]pyrimidine]
IC50 (CYP2C9): 27 µM | IC50 (CYP3A4): 0.83 µM | IC50 (CYP1A2): 99 µM | Cell Perm (Papp 10^−6 cm s^−1) A-B ([4]; apical-to-basolateral, 60 minutes at 37° C.): 33 10^−6 cm s^−1 | Cell Perm A-B/B-A [4]: 0.85 | Microsomes t1/2 (mins) Rat [5]: 15 min | IC50 (CYP2D6): 15 µM | IC50 (CYP2C19): 7 µM | Microsomes t1/2 (mins) Human [6]: >60 min

Next, values leading:

IC50 [1, 7]: 3 µM | IC50 [1, 8]: 3 µM | IC50 [2, 9]: 5.5 µM
Compound: Cc1nc2ncnn2c2c1CCN2C(C)c1ccccc1 (single isomer, unassigned) [Compound 4]

IC50 (CYP2C9): 14 µM | IC50 (CYP3A4): 8 µM | IC50 [1, 8]: 1.1 µM | IC50 (CYP1A2): > 20 µM | Papp A→B at 60 min, 10 μM [3]: 35 ×10⁻⁶ cm/s | Cell Perm A-B/B-A [4]: 0.55 | melting point: 153 to 155 °C | half-life at 1 μM [5]: 35 min | IC50 (CYP2D6): > 20 µM | IC50 (CYP2C19): > 10 µM | half-life at 1 μM [6]: > 60 min | IC50 [2, 10]: 1.44 µM
Compound: Cc1nc2ncnn2c2c1CCN2[C@H](c1ccccc1)C(F)(F)F [Compound 1, (R)-5-Methyl-8-[2,2,2-trifluoro-1-phenylethyl]-7,8-dihydro-6H-pyrrolo[3,2e][1,2,4]-triazolo[1,5-a]pyrimidine]

IC50 (CYP2C9): > 20 µM | IC50 (CYP3A4): 19 µM | IC50 [1, 8]: 0.8 µM | IC50 (CYP1A2): > 20 µM | Papp A→B at 60 min, 10 μM [3]: 72 ×10⁻⁶ cm/s | Cell Perm A-B/B-A [4]: 0.37 | half-life at 1 μM [5]: 60 min | IC50 (CYP2D6): > 20 µM | IC50 (CYP2C19): > 20 µM | half-life at 1 μM [6]: > 60 min | IC50 [2, 9]: 3.2 µM | IC50 [2, 10]: 0.91 µM
Compound: Cc1nc2ncnn2c2c1CCN2[C@H](c1ccc(F)cc1)C(F)(F)F [Compound 2, (R)-5-Methyl-8-[2,2,2-trifluoro-1-(4-fluorophenyl)ethyl]-7,8-dihydro-6H-pyrrolo[3,2e][1,2,4]triazolo[1,5-a]pyrimidine]
